The target of one test is T1, Amine oxidase (Homo sapiens, UniProt Q8TBI1).
T1 sequence (Q8TBI1 whole entry): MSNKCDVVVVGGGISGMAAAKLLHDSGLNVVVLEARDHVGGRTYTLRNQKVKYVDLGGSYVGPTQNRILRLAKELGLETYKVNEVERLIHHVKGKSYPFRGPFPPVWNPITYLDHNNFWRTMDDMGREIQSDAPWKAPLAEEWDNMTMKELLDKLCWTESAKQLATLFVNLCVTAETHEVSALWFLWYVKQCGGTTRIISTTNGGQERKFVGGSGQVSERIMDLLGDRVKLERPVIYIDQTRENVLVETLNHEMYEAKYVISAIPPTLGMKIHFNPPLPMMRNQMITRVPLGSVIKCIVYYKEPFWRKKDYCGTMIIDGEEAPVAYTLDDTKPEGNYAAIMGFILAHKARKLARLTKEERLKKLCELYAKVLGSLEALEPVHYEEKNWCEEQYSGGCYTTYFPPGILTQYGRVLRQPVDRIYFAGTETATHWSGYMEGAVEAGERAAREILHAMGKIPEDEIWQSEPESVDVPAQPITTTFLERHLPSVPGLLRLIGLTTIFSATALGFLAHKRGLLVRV
The test is described as follows: MAO Inhibition Assay. The protocol:
(§1) The protocol for measuring IC50 values for the inhibition of MAO-A and MAO-B has been reported in detail in a recent publication (26). The recombinant human MAO enzymes were used, and kynuramine served as non-selective MAO substrate. The MAOs oxidize kynuramine to ultimately yield a fluorescent metabolite, 4-hydroxyquinoline, which was measured by fluorescence spectrophotometry (kex = 310; kem = 400 nm).

Test [1] concerns the target T2, Amine oxidase [flavin-containing] A (Homo sapiens, UniProt P21397).
T2 sequence (P21397 whole entry): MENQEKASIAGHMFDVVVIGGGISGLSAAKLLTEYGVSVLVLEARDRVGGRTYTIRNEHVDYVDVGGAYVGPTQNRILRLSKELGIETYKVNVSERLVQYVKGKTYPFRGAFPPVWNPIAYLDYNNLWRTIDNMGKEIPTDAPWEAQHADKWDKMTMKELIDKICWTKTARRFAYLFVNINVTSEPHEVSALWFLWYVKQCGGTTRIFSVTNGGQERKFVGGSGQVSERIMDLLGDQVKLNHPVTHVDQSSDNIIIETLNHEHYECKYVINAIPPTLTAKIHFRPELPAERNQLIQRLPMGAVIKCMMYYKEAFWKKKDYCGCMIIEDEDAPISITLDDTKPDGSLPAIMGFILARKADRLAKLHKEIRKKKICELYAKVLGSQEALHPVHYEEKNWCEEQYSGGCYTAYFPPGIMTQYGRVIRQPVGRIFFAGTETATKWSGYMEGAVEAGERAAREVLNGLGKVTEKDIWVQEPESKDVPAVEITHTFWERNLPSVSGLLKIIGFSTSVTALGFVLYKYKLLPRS
Kind of test: MAO Inhibition Assay. The protocol: as §1

Data on eleven molecules can be found in BindingDB's records for doi:10.1111/cbdd.12708 (North-West University, 2016).

The structures appear in SMILES notation.

Turning to `COC1=CC(=O)c2ccccc2C1=O`, the IC50 stood at 24.8 µM on Amine oxidase and 20.4 µM in test [1]. For `CC1=CC(=O)c2c(O)cccc2C1=O`, in that order: 1.09 µM and 4.91 µM. For `O=C1C=CC(=O)c2ccccc21` [1,4-dihydronaphthalene-1,4-dione], in that order: 8.4 µM and 3.43 µM. In the case of `O=C1C(Cl)=C(Cl)C(=O)c2ccccc21` [2,3-dichloro-1,4-dihydronaphthalene-1,4-dione], the IC50 turned out to be 2.61 µM at Amine oxidase and 2 µM in test [1]. As for `CC1=C(CCl)C(=O)c2ccccc2C1=O` [2-(chloromethyl)-3-methyl-1,4-dihydronaphthalene-1,4-dione (5f)], on Amine oxidase, the IC50 is 10.8 µM. In the case of `O=C1C(Cl)=C(OCCCCO)C(=O)c2ccccc21` [2-chloro-3-(4-hydroxybutoxy)-1,4-dihydronaphthalene-1,4-dione (5h)], the IC50 at Amine oxidase came out at 3.06 µM; in test [1], 5.06 µM. As to `O=C1C(O)=C(Cl)C(=O)c2ccccc21` [2-chloro-3-hydroxy-1,4-dihydronaphthalene-1,4-dione (5g)], the midpoint of inhibition at Amine oxidase, the IC50, lay at 3.45 µM. Same read-out and setting: under `O=C1C=CC(=O)c2c(O)ccc(O)c21` [5,8-dihydroxy-1,4-naphthoquinone] stands 0.86 µM. As for `CC(C)=CCC(O)C1=CC(=O)c2c(O)ccc(O)c2C1=O` (centres undefined) [5,8-dihydroxy-2-(1-hydroxy-4-methylpent-3-enyl)naphthalene-1,4-dione], the IC50 was 1.01 µM against Amine oxidase and 1.5 µM in test [1]. As for `O=C1C=CC(=O)c2c(O)cccc21` [5-hydroxy-1,4-dihydronaphthalene-1,4-dione], the IC50 was 4.36 µM against Amine oxidase and 1.71 µM in test [1]. For `CC1=CC(=O)c2ccccc2C1=O` [Vitamin K3], in that order: 3.02 µM and 10.2 µM.

By IC50 is commonly meant the concentration that gives 50% inhibition. A high value points to weaker potency in that assay.
